Test results taken from patent US20120071427A1, “NOVEL ANTIDIABETIC FUROSTANOLIC SAPONIN RICH (FSR) FRACTION FROM FENUGREEK SEEDS” (priority 2009, published 2012).

Tested on: Type-1 diabetic rats
Experiment: Chronic administration, plasma glucose level in Type-1 diabetic rats
Type: in vivo
Settings: for PGL: INS 1 U/kg i.p. once daily; for % PGL Reduction: INS 1 U/kg i.p., vs respective vehicle control group
Method: Experimental studies were performed in animal models (rats) to determine anti-diabetic potential if any (Type 1 and Type 2) of the novel fraction isolated from fenugreek seeds (>70% furostanolic saponins with approximately 30% protodioscin as one of the major fractions).

## Insulin
0 d
  PGL: 527.98 ± 50.31 mg/dL
7 d
  PGL: 218.33 ± 16.87 mg/dL
  % PGL Reduction: (56.3%)
14 d
  PGL: 260.65 ± 22.96 mg/dL
  % PGL Reduction: (48.2%)
14 d, listed as insulin
  % PGL Reduction: 48.2%
